Consider 25 compounds from patent US9187472B2 (AbbVie Inc., priority 2012, dated 2015).

For experiment [1], the target named is NAMPT (human, recombinant, C-terminally His-tagged) (Homo sapiens, UniProt P43490). Nature of the experiment: Time-Resolved Fluorescence Resonance Energy Transfer (TR-FRET) Binding Assay of NAMPT. As to conditions: without substrates; 6.8 nM NAMPT, 200 nM probe, 3 hours equilibration. In outline:
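A TR-FRET probe-displacement assay used 6.8 nM His-tagged recombinant human NAMPT, 200 nM Oregon Green 488-labelled nicotinamide-competitive probe and 1 nM Tb-anti-His antibody. Buffer was HEPES pH 7.5 with NaCl, MgCl2, DTT and glycerol, plus 2% DMSO, equilibrated 3 h at room temperature. Em520/Em495 ratios, normalized to controls, gave IC50 by four-parameter logistic fit.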
(Time-resolved FRET reads energy transfer from a long-lived donor to a nearby acceptor.)

In experiment [2] the target is NAMPT (Homo sapiens, UniProt P43490). The experiment can be described thus: TR-FRET Binding Assay of NAMPT with PRPP. As to conditions: with 200 μM PRPP and 2.5 mM ATP; 2 nM NAMPT, 2 nM probe, 16 hours equilibration. An outline of the steps:
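Human NAMPT (2 nM) with 2 nM probe and 1 nM Tb-anti-His antibody, plus 200 μM PRPP and 2.5 mM ATP, 2% DMSO. TR-FRET read after 16 h equilibration, permitting possible enzymatic modification of test compounds; data processing as for the substrate-free format.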

Experiment [3] concerns PC3 cells. The experiment can be described thus: NAMPT Cell Proliferation Assay. The following applies: Homo sapiens, PC-3, 120 h, 5 days incubation, cell viability by Cell Titer Glo. It is filed as cell-based. An outline of the steps: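 Proliferation of PC3 cells treated 5 days with a 10-fold compound series (top 10 μM) was quantified by Cell Titer Glo luminescence; IC50s were fitted from percent inhibition.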
On the technique in general: ATP-based viability assays read luminescence as a measure of living cells.

Structures are written as SMILES.

Chain of NAMPT (human, recombinant, C-terminally His-tagged) (P43490 whole entry): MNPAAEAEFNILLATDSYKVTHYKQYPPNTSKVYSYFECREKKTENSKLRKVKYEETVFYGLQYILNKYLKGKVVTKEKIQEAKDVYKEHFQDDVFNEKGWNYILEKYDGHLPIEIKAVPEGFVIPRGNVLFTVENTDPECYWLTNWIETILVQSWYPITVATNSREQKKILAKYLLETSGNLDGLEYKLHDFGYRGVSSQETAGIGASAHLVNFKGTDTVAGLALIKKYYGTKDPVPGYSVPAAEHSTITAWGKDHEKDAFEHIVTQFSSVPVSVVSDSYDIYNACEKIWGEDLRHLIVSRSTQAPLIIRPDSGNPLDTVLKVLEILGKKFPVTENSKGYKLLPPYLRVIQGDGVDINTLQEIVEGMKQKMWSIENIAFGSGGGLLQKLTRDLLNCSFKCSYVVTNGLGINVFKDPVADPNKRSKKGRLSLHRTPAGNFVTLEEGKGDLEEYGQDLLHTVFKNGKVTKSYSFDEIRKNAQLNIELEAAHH
Chain of NAMPT (P43490 whole entry): as above

Regarding `CC(C)C(=O)N1CC=C(c2ncc(C(=O)NCc3ccn4ccnc4c3)s2)CC1` [Example 320, N-(imidazo[1,2-a]pyridin-7-ylmethyl)-2-[1-(2-methylpropanoyl)-1,2,3,6-tetrahydropyridin-4-yl]-1,3-thiazole-5-carboxamide], the IC50 in experiment [1] amounted to 96.3 nM; in experiment [2] it was 0.208 nM; in experiment [3] it was 171 nM.
The corresponding values for `O=C(NCc1ccn2ccnc2c1)Nc1ccc(C2CCN(C(=O)CC3CC3)CC2)cc1` [Example 712, 1-{4-[1-(cyclopropylacetyl)piperidin-4-yl]phenyl}-3-(imidazo[1,2-a]pyridin-7-ylmethyl)urea] are 91.1 nM, 0.907 nM and 5.8 nM.
The corresponding values for `O=C(NCc1ccn2ccnc2c1)c1cnc(N2CC(CO)OC2=O)s1` (stereo not drawn) [Example 251, 2-[5-(hydroxymethyl)-2-oxo-1,3-oxazolidin-3-yl]-N-(imidazo[1,2-a]pyridin-7-ylmethyl)-1,3-thiazole-5-carboxamide] are 2200 nM, 0.63 nM and 1840 nM.
The corresponding values for `O=C(NCc1ccn2ccnc2c1)c1ccc(-c2cnn(CCN3CCNCC3)c2)s1` [Example 809, N-(imidazo[1,2-a]pyridin-7-ylmethyl)-5-{1-[2-(piperazin-1-yl)ethyl]-1H-pyrazol-4-yl}thiophene-2-carboxamide] are 95.3 nM, 0.63 nM and 33.2 nM.
Turning to `O=C(NCc1ccn2ccnc2c1)c1ccc(C2CN(C(=O)c3ccccc3F)C2)cc1` [Example 638, 4-[1-(2-fluorobenzoyl)azetidin-3-yl]-N-(imidazo[1,2-a]pyridin-7-ylmethyl)benzamide], the figures for the IC50 in experiment [1], in experiment [2] and in experiment [3] were 16.6 nM, 0.545 nM and 2.61 nM, respectively.
Consider `O=C(NCc1ccn2ccnc2c1)c1ccc(C2CCN(C(=O)Cc3cc(F)cc(F)c3)C2)s1` (stereo not drawn) [Example 764, 5-{1[(3,5-difluorophenyl)acetyl]pyrrolidin-3-yl}-N-(imidazo[1,2-a]pyridin-7-ylmethyl)thiophene-2-carboxamide], for which the IC50 in experiment [1] came out at 135 nM; in experiment [2], 0.465 nM; in experiment [3] it was 68.7 nM.
The corresponding values for `O=C(NCc1ccn2ccnc2c1)c1ccc(OC2CCN(C(=O)C3CCOCC3)CC2)cc1` [Example 420, N-(imidazo[1,2-a]pyridin-7-ylmethyl)-4-{[1-(tetrahydro-2H-pyran-4-ylcarbonyl)piperidin-4-yl]oxy}benzamide] are 2710 nM, 0.226 nM and 147 nM.
The corresponding values for `O=C(CC1CCCC1)Nc1ccc(NC(=O)NCc2ccc3nccn3c2)cc1` [Example 60, 2-cyclopentyl-N-(4-{[(imidazo[1,2-a]pyridin-6-ylmethyl)carbamoyl]amino}phenyl)acetamide] are 8.61 nM, 1.49 nM and 9.58 nM.
The corresponding values for `O=C(NCc1ccn2ccnc2c1)c1cnc(N(C[C@H]2CCCO2)C(=O)CCc2cnoc2)s1` [Example 195, N-(imidazo[1,2-a]pyridin-7-ylmethyl)-2-{[3-(1,2-oxazol-4-yl)propanoyl][(2R)-tetrahydrofuran-2-ylmethyl]amino}-1,3-thiazole-5-carboxamide] are 24.7 nM, 0.251 nM and 0.966 nM.
For `O=C(NCc1ccn2ccnc2c1)c1ccc(C2CCN(C(=O)c3nccs3)C2)cc1` (stereo not drawn) [Example 613, N-(imidazo[1,2-a]pyridin-7-ylmethyl)-4-[1-(1,3-thiazol-2-ylcarbonyl)pyrrolidin-3-yl]benzamide], the IC50 in experiment [1] was 347 nM; in experiment [2], 0.916 nM; in experiment [3], 140 nM.
On to `O=C(NCc1ccn2ccnc2c1)Nc1ccc(C2CCN(C(=O)c3ccccc3)CC2)cc1` [Example 229, 1-[4-(1-benzoylpiperidin-4-yl)phenyl]-3-(imidazo[1,2-a]pyridin-7-ylmethyl)urea], for which the values for the concentration for half-maximal inhibition (IC50) in experiment [1], in experiment [2] and in experiment [3] were 13.6 nM, 0.398 nM and 1.06 nM, respectively.
The corresponding values for `O=C(NCc1ccn2ccnc2c1)c1ccc(-c2cnn(CC3(F)CCOCC3)c2)s1` [Example 698, 5-{1-[(4-fluorotetrahydro-2H-pyran-4-yl)methyl]-1H-pyrazol-4-yl}-N-(imidazo[1,2-a]pyridin-7-ylmethyl)thiophene-2-carboxamide] are 36.4 nM, 0.629 nM and 0.67 nM.
Take `CC(C)OCC(=O)N1CCC(Oc2ccc(C(=O)NCc3ccn4ccnc4c3)cc2)CC1` [Example 416, N-(imidazo[1,2-a]pyridin-7-ylmethyl)-4-({1-[(propan-2-yloxy)acetyl]piperidin-4-yl}oxy)benzamide]: the results for the IC50 in experiment [1], in experiment [2] and in experiment [3] were 2500 nM, 0.318 nM and 659 nM, respectively.
The corresponding values for `O=C(NCc1ccn2ccnc2c1)Nc1ccc(C2CN(C(=O)CC3CC3)C2)cc1` [Example 454, 1-{4-[1-(cyclopropylacetyl)azetidin-3-yl]phenyl}-3-(imidazo[1,2-a]pyridin-7-ylmethyl)urea] are 405 nM, 0.34 nM and 42.2 nM.
The corresponding values for `N#Cc1ccc(C(=O)N2CCC(c3ccc(C(=O)NCc4ccn5ccnc5c4)cc3)CC2)cc1` [Example 520, 4-[1-(4-cyanobenzoyl)piperidin-4-yl]-N-(imidazo[1,2-a]pyridin-7-ylmethyl)benzamide] are 565 nM, 0.301 nM and 101 nM.
The corresponding values for `O=C(NCc1ccn2ccnc2c1)c1ccc(C2CN(C(=O)c3ccc(Cl)cc3)C2)cc1` [Example 645, 4-[1-(4-chlorobenzoyl)azetidin-3-yl]-N-(imidazo[1,2-a]pyridin-7-ylmethyl)benzamide] are 91 nM, 0.474 nM and 34 nM.
For the compound `CC(C)(C)OC(=O)N1CCC(Oc2ccc(NC(=O)NCc3ccn4ccnc4c3)cc2)CC1` [Example 366, tert-butyl 4-(4-{[(imidazo[1,2-a]pyridin-7-ylmethyl)carbamoyl]amino}phenoxy)piperidine-1-carboxylate], the results for the IC50 in experiment [1], in experiment [2] and in experiment [3] were 146 nM, 0.435 nM and 21.5 nM, respectively.
The corresponding values for `CC(C)C(=O)N1CCC(c2ccc(C(=O)NCc3ccn4ccnc4c3)s2)C1` (stereo not drawn) [Example 541, N-(imidazo[1,2-a]pyridin-7-ylmethyl)-5-[1-(2-methylpropanoyl)pyrrolidin-3-yl]thiophene-2-carboxamide] are 175 nM, 0.448 nM and 64.5 nM.
The corresponding values for `O=C(NCc1ccn2ccnc2c1)c1ccc(C2CN(C(=O)c3ccc(F)cc3)C2)cc1` [Example 649, 4-[1-(4-fluorobenzoyl)azetidin-3-yl]-N-(imidazo[1,2-a]pyridin-7-ylmethyl)benzamide] are 203 nM, 0.749 nM and 70.6 nM.
The corresponding values for `COCC(C)C(=O)N1CC[C@H](Oc2ccc(C(=O)NCc3ccn4ccnc4c3)cc2)C1` (stereo partly drawn) [Example 349, N-(imidazo[1,2-a]pyridin-7-ylmethyl)-4-{[(3S)-1-(3-methoxy-2-methylpropanoyl)pyrrolidin-3-yl]oxy}benzamide] are 4110 nM, 0.736 nM and 5510 nM.
For `CC(=O)Nc1ccc(NC(=O)Nc2ccc3nccn3c2)cc1` [Example 27], the IC50 in experiment [1] came out at 756 nM; in experiment [2] it was 0.658 nM; in experiment [3], 7540 nM.
The corresponding values for `O=C(NCc1ccn2ccnc2c1)c1ccc(-c2cnn(C[C@H]3CCCO3)c2)s1` [Example 395, N-(imidazo[1,2-a]pyridin-7-ylmethyl)-5-{1-[(2R)-tetrahydrofuran-2-ylmethyl]-1H-pyrazol-4-yl}thiophene-2-carboxamide] are 12.5 nM, 0.193 nM and 6.34 nM.
The corresponding values for `O=C(NCc1ccc2nccn2c1)c1ccc(OC2CCN(C(=O)[C@H]3CCCO3)CC2)cc1` [Example 165, N-(imidazo[1,2-a]pyridin-6-ylmethyl)-4-({1-[(2R)-tetrahydrofuran-2-ylcarbonyl]piperidin-4-yl}oxy)benzamide] are 1530 nM, 1.61 nM and 137 nM.
The corresponding values for `O=C(NCc1ccn2ccnc2c1)c1ccc(C2CCN(C(=O)c3ccccn3)CC2)cc1` [Example 498, N-(imidazo[1,2-a]pyridin-7-ylmethyl)-4-[1-(pyridin-2-ylcarbonyl)piperidin-4-yl]benzamide] are 309 nM, 0.169 nM and 17.9 nM.
Turning to `CC(C)OCC(=O)N1CCC(c2ccc(C(=O)NCc3ccn4ccnc4c3)cc2)CC1` [Example 237, N-(imidazo[1,2-a]pyridin-7-ylmethyl)-4-{1-[(propan-2-yloxy)acetyl]piperidin-4-yl}benzamide], the results for the IC50 in experiment [1], in experiment [2] and in experiment [3] were 451 nM, 0.285 nM and 37.2 nM, respectively.

By IC50 is commonly meant the concentration at which inhibition is half-maximal.
